The conditions of this data set: uncapped samples, 40° C./75% RH stability chamber, at least 3 weeks. On the procedure: PXRD diffractograms were recorded on a Bruker D8 Discover powder X-ray diffractometer (Bruker AXS LLC, Karlsruhe, Germany). The generator was a Incoatec Microfocus Source (IμS) Cu tube (λ=1.54060 Å) with a voltage of 50 kV and current of 1.00 mA, using a divergence slit of 0.1 mm and collimator of 2.0 mm. For each sample, two frames were collected using a still scan with a PILATUS3 R 100K-A detector at the distance of 294.2 mm from the sample. Raw data were evaluated using the program DIFFRAC.EVA (Bruker AXS LLC, Karlsruhe, Germany).
Take “viloxazine fumarate [viloxazine fumarate Form APO-I]”: the “change in the crystalline form by PXRD (form stability)” value (“change in the crystalline form by PXRD” below) was “no change in the crystalline form occurred”.

Take `CCOc1ccccc1OCC1CNCCO1.O=S(=O)(O)c1ccc2ccccc2c1` (stereo not drawn) [viloxazine naphthalene-2-sulfonate]: the “change in the crystalline form by PXRD” value was “no change in the crystalline form occurred”.

Regarding `CCOc1ccccc1OCC1CNCCO1.CCOc1ccccc1OCC1CNCCO1.O=C(O)C(O)C(O)C(=O)O` (racemic) [viloxazine hemi-DL-tartrate Form APO-I, viloxazine hemi-DL-tartrate], the “change in the crystalline form by PXRD” value was “no change in the crystalline form occurred”.
